Measured values taken from article PMC5321639, “Design and pharmacodynamics of recombinant NZ2114 histidine mutants with improved activity against methicillin-resistant Staphylococcus aureus” (AMB Express, 2017).
≈ marks a conversion by molar mass, not a printed value. Where a SMILES comes first, the peptide text is derived from it. Bridges are numbered along the chain shown (N, C = ends).

Key:
[1] = tested on: S. aureus ATCC43300 (MRSA); assay: Time-kill curve assay; assay type: cell-based, Staphylococcus aureus; conditions: for time for bacterial counts to decrease to 2 log10 CFU/ml (a 99.9% reduction): start 1 × 10^5 CFU/ml, 37 °C, triplicate
Protocol: Bacterial culture (S. aureus ATCC43300) was diluted to 1 × 10^5 CFU/ml and H1, H2, and H3 were added. […] The mixture was cultivated at 250 rpm, 37 °C. The 100-µl samples were taken from each flask at 0, 2, 4, 6, 8, 12 and 24 h of incubation, and serial dilutions of samples were plated to count visible colonies. Vancomycin was tested in the same way as a positive control and the culture without antimicrobial agent as a negative control (Xiong et al. [2011]). All experiments were performed in triplicate.

S. aureus ATCC43300 [2] = assay: Effect of temperature on activity (MIC); assay type: cell-based, Staphylococcus aureus; conditions: then MIC assay
Protocol: (§1) The peptide solutions were diluted twofold with the range of final concentrations were 0.015–32 µg/ml (0.003–7.273 µM) for purified H1, H2, H3, H6, and H8. The test strains were grown in MHB medium at 37 °C to an OD600 of 0.4 and diluted to 1 × 10^5 CFU/ml. The 10 µl peptide and 90 µl cell suspension were added into each well. All assays were performed in triplicate. The antimicrobial activity of NZ2114 and vancomycin were tested as positive controls. The plates were incubated at 37 °C for 18–24 h. MIC was defined as the lowest peptide concentration of ones at which there was no visible growth (Tian et al. [2009]).
(§2) The effect of pH, temperature, NaCl concentration and proteinase on the activity of peptides was evaluated. Peptides were diluted twofold, then adjusted to a pH range from 2.0 to 10.0 and incubated at 37 °C for 4 h. The thermal stability of purified peptides was determined after 1-h incubation of peptides at 4, 20, 40, 60, 80 and 100 °C in deionized water, respectively. Aliquots of peptides were incubated in various proteinases solutions [pepsin (pH 2.0), trypsin (pH 8.0), proteinase K (pH 7.0)] at a ratio of 1:10, w/w (proteinase: peptide) at 37 °C for 3 h. For the ion stability, peptides were incubated in 50, 100, 200, 300, 400, 500 mM sodium chloride solutions, respectively. Other methods and conditions were prepared as the MIC assay described above (Li et al. [2015]; Qu et al. [2016]).

S. aureus ATCC43300 [3] = assay: Postantibiotic effect (PAE); assay type: cell-based, Staphylococcus aureus; conditions: 2 h exposure at 37 °C, 1 × 10^8 CFU/ml, drug removed by 1:10^3 dilution, mean ± SD, n = 3
Protocol: After 2 h, the drug was removed by diluting 1:10^3 into the MHB and incubated at 37 °C, 250 rpm. The sample was taken to plate counting every 1 h until the bacterial cultures become turbid. The PAE was calculated by the following formula: PAE = T − C, where T is the time needed for the count of CFU in the test culture to increase 1 log10 (10-fold) above the 0 h and C is the time needed for the count of CFU in the untreated control culture to increase 1 log10 above the 0 h (Giguère et al. [2012]).

S. aureus ATCC43300 [4] = assay: Effect of proteinases on activity (MIC); assay type: cell-based, Staphylococcus aureus; conditions: 1:10 w/w proteinase:peptide, 37 °C for 3 h, then MIC assay
Protocol: as §1, §2

S. aureus ATCC43300 [5] = assay: Effect of pH on activity (MIC); assay type: cell-based, Staphylococcus aureus; conditions: then MIC assay
Protocol: as §1, §2

S. aureus ATCC43300 [6] = assay: Effect of NaCl concentration on activity (MIC); assay type: cell-based, Staphylococcus aureus
Protocol: as §1, §2

S. aureus ATCC43300 [7] = assay: microbe, parasite or virus in culture; assay type: cell-based, Staphylococcus aureus; conditions: for MICc (MIC of the most effective combination): checkerboard
Protocol: The MIC values of four antibiotics (vancomycin, ampicillin, rifampicin and ciprofloxacin) to S. aureus ATCC43300 were tested as the MIC assay described above. The peptide solutions and antibiotics were diluted twofold with the final concentrations ranging from 1/16 to 8× MIC, and added into 96-well plates in a checkerboard fashion (White et al. [1996]). The results of combination were evaluated by calculating the fractional inhibitory concentration index (FICI) of each combination. FIC of H1, H2, H3=MIC of H1, H2, H3, respectively, in combination with antibiotic/MIC of H1, H2, H3 alone; FIC of antibiotics=MIC of antibiotic in combination with peptide/MIC of antibiotic alone; FICI = FIC of H1, H2, H3+ antibiotic, respectively. The result of interaction between two antimicrobial drugs was determined according to: FICI ≤ 0.5 refers to synergy, 0.5 < FICI ≤ 1 refers to additivity, 1 < FICI ≤ 4 refers to indifference, and FICI > 4 is defined as antagonism (Tsuji and Rybak [2006]).

[8] = conventional antibiotics; ref Pankuch and Appelbaum [2009b]; Pankuch et al. [2003]; Watanabe et al. [1997]; cited from earlier work
Description: The PAE is a very important pharmacodynamics parameter in choosing of antibiotic dosage regimens in clinical use (Pankuch and Appelbaum [2009a]).

Compound: CC[C@H](C)[C@@H]1NC(=O)[C@H](CO)NC(=O)[C@H](CCCCN)NC(=O)[C@@H]2CSSC[C@@H](C(=O)N[C@@H](Cc3ccc(O)cc3)C(=O)O)NC(=O)[C@H](CCCCN)NC(=O)[C@@H]3CSSC[C@H](NC(=O)[C@H](CCCNC(=N)N)NC(=O)[C@H](CC(C)C)NC(=O)[C@H](CC(=O)O)NC(=O)[C@H](CC(=O)O)NC(=O)[C@H](CCC(=O)O)NC(=O)[C@H](CC(N)=O)NC(=O)[C@H](Cc4c[nH]c5ccccc45)NC(=O)[C@@H]4CCCN4C(=O)CNC(=O)[C@H](CC(N)=O)NC(=O)[C@@H](NC(=O)CNC(=O)[C@H](Cc4ccccc4)NC(=O)CN)CSSC[C@H](NC(=O)[C@H](Cc4ccc(O)cc4)NC(=O)CNC(=O)CNC(=O)[C@H](CCCCN)NC(=O)[C@H](Cc4ccc(O)cc4)NC(=O)CNC(=O)[C@H](CCCCN)NC1=O)C(=O)N[C@@H](C)C(=O)N[C@@H](CCCCN)C(=O)NCC(=O)NCC(=O)N[C@@H](Cc1ccccc1)C(=O)N[C@@H](C(C)C)C(=O)N3)C(=O)N[C@@H](CCCCN)C(=O)N[C@@H](CC(N)=O)C(=O)N[C@@H](Cc1c[nH]cn1)C(=O)N2 [H1] (H-GFGCNGPWNEDDLRCKNHCKSIKGYKGGYCAKGGFVCKCY-OH; disulfide 4-30, 15-37, 19-39; N-terminus and C-terminus assumed)
- incubation time after which regrowth occurred ([1]; 1× MIC): 8 h
- time for bacterial counts to decrease to 2 log10 CFU/ml (a 99.9% reduction) ([1]; 1× MIC): 6 h
- incubation time after which regrowth occurred ([1]; 2× MIC): 12 h
- bacterial counts at 24 h after regrowth ([1]; 2× MIC, 24 h): 3.40 log10 CFU/ml
- time for bacterial counts to decrease to 2 log10 CFU/ml (a 99.9% reduction) ([1]; 2× MIC): 1.5 h
- time for bacterial counts to decrease to 2 log10 CFU/ml (a 99.9% reduction) ([1]; 4× MIC): 1 h
- MIC after incubation at 4 °C (S. aureus ATCC43300 [2]; 1 h at 4 °C in deionized water): 0.057 µM (≈ 0.251 µg/mL)
- MIC after incubation at 20 °C (S. aureus ATCC43300 [2]; 1 h at 20 °C in deionized water): 0.057 µM (≈ 0.251 µg/mL)
- MIC after incubation at 40 °C (S. aureus ATCC43300 [2]; 1 h at 40 °C in deionized water): 0.057 µM (≈ 0.251 µg/mL)
- MIC after incubation at 60 °C (S. aureus ATCC43300 [2]; 1 h at 60 °C in deionized water): 0.057 µM (≈ 0.251 µg/mL)
- MIC after incubation at 80 °C (S. aureus ATCC43300 [2]; 1 h at 80 °C in deionized water): 0.057 µM (≈ 0.251 µg/mL)
- PAE (S. aureus ATCC43300 [3]; 1× MIC): 0.90 ± 0.04 h
- PAE (S. aureus ATCC43300 [3]; 2× MIC): 2.94 ± 0.07 h
- MIC after Proteinase K (S. aureus ATCC43300 [4]; proteinase K (pH 7.0)): 0.057 µM (≈ 0.251 µg/mL)
- MIC after Trypsin (S. aureus ATCC43300 [4]; trypsin (pH 8.0)): 0.057 µM (≈ 0.251 µg/mL)
- MIC after incubation at pH2 (S. aureus ATCC43300 [5]; pH 2, 37 °C for 4 h): 0.057 μM
- MIC after incubation at pH4 (S. aureus ATCC43300 [5]; pH 4, 37 °C for 4 h): 0.057 μM
- MIC after incubation at pH6 (S. aureus ATCC43300 [5]; pH 6, 37 °C for 4 h): 0.057 μM
- MIC after incubation at pH8 (S. aureus ATCC43300 [5]; pH 8, 37 °C for 4 h): 0.057 μM
- MIC in 50 mM NaCl (S. aureus ATCC43300 [6]; incubated in 50 mM sodium chloride solution): 0.057 µM (≈ 0.251 µg/mL)
- MIC in 100 mM NaCl (S. aureus ATCC43300 [6]; incubated in 100 mM sodium chloride solution): 0.057 µM (≈ 0.251 µg/mL)
- MIC in 200 mM NaCl (S. aureus ATCC43300 [6]; incubated in 200 mM sodium chloride solution): 0.057 µM (≈ 0.251 µg/mL)
- MIC in 300 mM NaCl (S. aureus ATCC43300 [6]; incubated in 300 mM sodium chloride solution): 0.057 µM (≈ 0.251 µg/mL)
- MIC in 400 mM NaCl (S. aureus ATCC43300 [6]; incubated in 400 mM sodium chloride solution): 0.057 µM (≈ 0.251 µg/mL)
- MIC in 500 mM NaCl (S. aureus ATCC43300 [6]; incubated in 500 mM sodium chloride solution): 0.057 µM (≈ 0.251 µg/mL)
- MICc (MIC of the most effective combination) (S. aureus ATCC43300 [7]; in combination with ampicillin): 0.014 µM
- MICc (MIC of the most effective combination) (S. aureus ATCC43300 [7]; in combination with ciprofloxacin): 0.028 µM
- MICc (MIC of the most effective combination) (S. aureus ATCC43300 [7]; in combination with rifampicin): 0.056 µM
- MICc (MIC of the most effective combination) (S. aureus ATCC43300 [7]; in combination with vancomycin): 0.056 µM
- MIC (S. aureus ATCC43300 [7]; drug alone, read-out: MICa (MIC of drug alone)): 0.056 µM

Compound: NCC[C@H](O)C(=O)N[C@@H]1C[C@H](N)[C@@H](O[C@H]2O[C@H](CN)CC[C@H]2N)[C@H](O)[C@H]1O[C@H]1O[C@H](CO)[C@@H](O)[C@H](N)[C@H]1O [arbekacin]
- PAE [8]: 3.0 to 3.2 h

Compound: CN(C)c1cc(NC(=O)CNC(C)(C)C)c(O)c2c1C[C@H]1C[C@H]3[C@H](N(C)C)C(O)=C(C(N)=O)C(=O)[C@@]3(O)C(O)=C1C2=O [tigecycline]
- PAE [8]: 3.2 h

Compound: daptomycin
- PAE [8]: 2.0 h
